Laboratory results taken from patent US6939565B2, “Protease inhibitors of the coagulation cascade isolated from Dysidea sponges” (Pharmacia Corporation, priority 2001, dated 2005).

Tests used:
Format in all cases: biochemical
Xa = Xa (Homo sapiens, UniProt P00742); test: HPLC-PDA-MS-bioassay, factor Xa inhibition
Protocol: (§1) An aliquot of sample was injected onto C18 reversed-phase column with flow rate of 1 mL/min. Mass spectra were recorded from 150 to 1000 amu in both positive and negative modes using electrospray ionization. A splitter was attached immediately after the HPLC column so that a fraction of the eluent was directed towards the electrospray source. The remaining fraction was collected in deep-well plates. The plates were dried overnight and biassayed.

Trypsin = test: HPLC-PDA-MS-bioassay, trypsin inhibition
Protocol: as §1

TF/VIIa = target: T1, TF/VIIa (Homo sapiens, UniProt P08709); test: Factor VIIa/TF inhibitory assay (chromogenic substrate, OD 405 nm); conditions: recombinant human factor VIIa with recombinant soluble tissue factor
T1 construct: recombinant human factor VIIa
Protocol: To determine inhibitory activity, the compound having structure (1) was combined with recombinant human factor VIIa in black clear bottom well plates followed by a 10 minute room temperature incubation. Recombinant soluble tissue factor was then added followed by a 15 minute room temperature incubation. Finally, chromozymen tPA substrate was added and the plates were immediately read at 405 nm to determine background absorbance. After incubation, the rate of hydrolysis of the substrate was measured by monitoring the reaction at 405 nm for the release of p-nitroaniline. Percent inhibition of TF/VIIa activity was calculated from OD 405 nm value from the experimental and control sample. All hits 50% of control and less were confirmed and requested for IC50 values.
as §1

Thrombin = target: T2, Thrombin (Homo sapiens, UniProt P00734); test: HPLC-PDA-MS-bioassay, thrombin inhibition
T2 construct: Xa with factor Va converts prothrombin (II) to thrombin (IIa)
Protocol: as §1

T1 sequence (P08709 61-212 limits assumed): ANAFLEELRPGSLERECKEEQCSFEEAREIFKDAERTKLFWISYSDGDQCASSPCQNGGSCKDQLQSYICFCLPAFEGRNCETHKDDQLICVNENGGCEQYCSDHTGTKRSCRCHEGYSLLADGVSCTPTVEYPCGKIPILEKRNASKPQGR
T1 sequence (P08709 213-466 limits assumed): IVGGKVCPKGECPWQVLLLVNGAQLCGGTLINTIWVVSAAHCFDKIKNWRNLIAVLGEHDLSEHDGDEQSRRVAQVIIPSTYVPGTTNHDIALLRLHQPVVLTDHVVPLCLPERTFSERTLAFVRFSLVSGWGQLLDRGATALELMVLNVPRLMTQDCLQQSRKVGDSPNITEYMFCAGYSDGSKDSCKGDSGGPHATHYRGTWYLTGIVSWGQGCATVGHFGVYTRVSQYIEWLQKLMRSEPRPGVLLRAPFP
T1 sequence (P13726 33-251 partner limits assumed): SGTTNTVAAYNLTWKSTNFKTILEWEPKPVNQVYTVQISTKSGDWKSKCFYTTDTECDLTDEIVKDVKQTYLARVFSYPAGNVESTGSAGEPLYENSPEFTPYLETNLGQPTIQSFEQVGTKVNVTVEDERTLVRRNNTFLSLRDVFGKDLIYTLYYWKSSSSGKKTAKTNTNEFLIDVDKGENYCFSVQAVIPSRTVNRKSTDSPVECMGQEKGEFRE
Xa, sequence (P00742 41-179 limits assumed): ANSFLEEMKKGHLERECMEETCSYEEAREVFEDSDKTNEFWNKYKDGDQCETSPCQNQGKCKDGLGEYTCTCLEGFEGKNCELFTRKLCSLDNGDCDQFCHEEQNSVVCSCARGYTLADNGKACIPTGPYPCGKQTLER
Xa, sequence (P00742 235-488 limits assumed): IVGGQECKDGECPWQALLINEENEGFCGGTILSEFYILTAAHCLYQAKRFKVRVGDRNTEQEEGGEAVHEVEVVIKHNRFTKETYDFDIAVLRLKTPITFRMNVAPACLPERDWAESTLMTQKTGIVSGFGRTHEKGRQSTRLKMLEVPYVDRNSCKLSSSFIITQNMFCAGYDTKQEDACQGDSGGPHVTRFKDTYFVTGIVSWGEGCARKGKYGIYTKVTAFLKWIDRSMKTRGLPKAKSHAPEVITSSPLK

- IC50 (Xa): 200 nM
- IC50 (Trypsin): 37 nM
- IC50 (TF/VIIa): 9 nM
- IC50 (Thrombin): 4 nM
Compound: COC(COS(=O)(=O)O)C(=O)NC(C(=O)N1C(C(=O)NCCC2=CCN(C(=N)N)C2)CC2CC(O)C(O)CC21)C(Cl)C(C)C (stereo not shown) [Structure 1]
